Source: the supplement of paper PMC10307832

Legend:
Experiment in all cases: relative viability (nuclei count vs DMSO), 5 days (fraction); higher = more cells survive
Serdemetan + Lapatinib = compound: c1ccc2c(CCNc3ccc(Nc4ccncc4)cc3)c[nH]c2c1 [Serdemetan] + CS(=O)(=O)CCNCc1ccc(-c2ccc3ncnc(Nc4ccc(OCc5cccc(F)c5)c(Cl)c4)c3c2)o1 [Lapatinib] (partner 2 µM)
How it was run: (§1)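 Relative viability equals treated-well nuclei counts divided by vehicle-well nuclei counts. Counts came from 4× images of lung cancer cell lines grown in 1536-well plates for 5 days after pin-tool dosing on the day after seeding. Dosing used one drug alone or a fixed anchor-drug dose plus five library-drug doses (not always all listed) in √10 steps, and values are medians of duplicate plates.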

Selisistat + Phenformin = compound: C1CC(C2=C(C1)C3=C(N2)C=CC(=C3)Cl)C(=O)N [Selisistat] + N=C(N)NC(=N)NCCc1ccccc1 [Phenformin] (partner 250 µM)
How it was run: as §1

Selisistat + Vorinostat = compound: C1CC(C2=C(C1)C3=C(N2)C=CC(=C3)Cl)C(=O)N [Selisistat] + O=C(CCCCCCC(=O)Nc1ccccc1)NO [Vorinostat] (partner 1 µM)
How it was run: as §1

Serdemetan + Vorinostat = compound: c1ccc2c(CCNc3ccc(Nc4ccncc4)cc3)c[nH]c2c1 [Serdemetan] + O=C(CCCCCCC(=O)Nc1ccccc1)NO [Vorinostat] (partner 1 µM)
How it was run: as §1

Cell Line	relative viability (Serdemetan + Lapatinib; first compound 0.04 µM)	relative viability (Serdemetan + Lapatinib; first compound 0.1265 µM)	relative viability (Serdemetan + Lapatinib; first compound 0.4 µM)	relative viability (Serdemetan + Lapatinib; first compound 1.265 µM)	relative viability (Serdemetan + Lapatinib; first compound 4 µM)	relative viability (Selisistat + Phenformin; first compound 0.4 µM)	relative viability (Selisistat + Phenformin; first compound 1.265 µM)	relative viability (Selisistat + Phenformin; first compound 4 µM)	relative viability (Selisistat + Phenformin; first compound 12.65 µM)	relative viability (Selisistat + Phenformin; first compound 40 µM)	relative viability (Selisistat + Vorinostat; first compound 0.4 µM)	relative viability (Selisistat + Vorinostat; first compound 1.265 µM)	relative viability (Selisistat + Vorinostat; first compound 4 µM)	relative viability (Selisistat + Vorinostat; first compound 12.65 µM)	relative viability (Selisistat + Vorinostat; first compound 40 µM)	relative viability (Serdemetan + Vorinostat; first compound 0.04 µM)	relative viability (Serdemetan + Vorinostat; first compound 0.1265 µM)	relative viability (Serdemetan + Vorinostat; first compound 0.4 µM)	relative viability (Serdemetan + Vorinostat; first compound 1.265 µM)	relative viability (Serdemetan + Vorinostat; first compound 4 µM)
NCI-H1755	0.984	1.01	0.989	0.548	0.714	0.645	0.615	0.585	0.559	0.618	0.831	0.903	0.975	0.766	0.928	0.648	0.811	0.741	0.54	0.459
HCC-78	0.769	0.666	0.323	0.448	0.78	0.774	0.815	0.54	0.685	0.744	0.495	0.467	0.437	0.428	0.6	0.464	0.432	0.483	0.388	0.339
IA-LM	0.723	1	0.655	0.584	0.322						1.09			0.926	1.22	1.05	0.964	0.9	0.81	0.419
NCI-H322M	0.577	0.585	0.546	0.546	0.562	0.768	0.837	0.656	0.77	0.915	0.857	0.921		0.893	1.02	0.798	0.906	0.857	0.806	0.854
NCI-H3122	1	0.98	1		1.03	0.406	0.367	0.294	0.369	0.371	0.977	0.919		1.09	1.34	1.05	0.969	0.928	0.587	0.877
COR-L23	0.916	0.924	1.03	0.422	0.78	0.443	0.43	0.458	0.424	0.441	0.499	0.49	0.577	0.515	0.573	0.441	0.434	0.392	0.412	0.362
NCI-H2087	1.06	0.974	1.1	0.641	0.508	0.54	0.455		0.44	0.472	0.897	0.667		0.422	0.76	0.864	0.316	0.527	0.226	0.213
LC-2-ad	0.916	1	0.954		0.913	0.625		0.437	0.582	0.632	0.769	0.704	0.774	0.806	0.764	0.71	0.683	0.673	0.646	0.638
NCI-H1915	0.967	0.995	1.03	0.955	0.965	0.377	0.356	0.368	0.355	0.368	0.494	0.538	0.661	0.538	0.641	0.538	0.535	0.513	0.508	0.509
NCI-H1793	0.644	0.679	0.637	0.38	0.625	0.398	0.366		0.303	0.388	0.899	0.679		0.88	0.781	0.808	0.671	0.439	0.286	0.397
NCI-H1792	0.854	0.863	0.86	0.646	0.676	0.301	0.357		0.324	0.224										
ChaGo-K-1						0.488	0.458	0.439	0.422	0.485	0.72	0.728	0.73	0.729	0.842	0.741	0.697	0.77	0.329	0.331
NCI-H522						0.695	0.61	0.469	0.61	0.687	0.908	0.868	0.835	0.919	1.13	0.982	0.955	0.923	0.831	0.799
NCI-H1299	0.939	0.984	0.985	0.78	0.767															
NCI-H1648											0.289	0.446		0.596	0.39		0.552	0.329	0.398	0.252
NCI-H2342						0.562	0.54	0.504	0.601	0.61	0.749	0.646	0.626	0.899	0.897	0.705	0.731	1.07	0.908	0.478
SW 900						0.632	0.621	0.468	0.484	0.641	0.684	0.705	0.518	0.747	0.781	0.485	0.569	0.53	0.393	0.455
A549	1.06	0.916	0.901	0.953	0.455	0.192	0.17		0.123	0.145										
NCI-H1563	0.637	0.892	0.527	0.799	0.723	0.662	0.658	0.63	0.638	0.585										
LCLC-103H						0.339	0.338	0.334	0.351	0.355	0.824	0.908	0.747	0.803	0.953	0.759	0.852	0.773	0.75	0.779
NCI-H441						0.801	0.799	0.698	0.779	0.8	0.851	0.723	0.805	0.666	1	0.795	0.71	0.765	0.479	0.436
